Calls of active or inactive are those of the source. No cut-off for these calls is given here.
How the values were obtained:
HK-2 [1] = assay: Anti-inflammatory activity against H/R induced damage in human HK-2 cells assessed as inhibition of TLR4 protein expression pretreated with compound followed by hypoxic reoxygenation induction; format: functional, cell-based
HK-2 [2] = assay: Anti-inflammatory activity against H/R induced damage in human HK-2 cells assessed as inhibition of IL-1beta protein expression pretreated with compound followed by hypoxic reoxygenation induction; format: functional, cell-based
HK-2 [3] = assay: Anti-inflammatory activity against H/R induced damage in human HK-2 cells assessed as inhibition of MyD88 protein expression pretreated with compound followed by hypoxic reoxygenation induction; format: functional, cell-based
HK-2 [4] = assay: Anti-inflammatory activity against H/R induced damage in human HK-2 cells assessed as inhibition of p-NFkappaB protein expression pretreated with compound followed by hypoxic reoxygenation induction; format: functional, cell-based
Rattus norvegicus = species on record: Rattus norvegicus; assay: Protection against kidney ischemia-reperfusion injury in rat model assessed as decrease in blood creatinine level; format: functional, organism-based

O=C(O)[C@@H]1C[C@@H](O)[C@@H](O)[C@H](O[C@@H]2[C@@H](O)[C@@H](O)[C@H](O[C@H]([C@@H](O)[C@@H](O)C(=O)O)[C@H](O)C(=O)O)O[C@@H]2C(=O)O)O1
Activity (HK-2 [1]): Active
Activity (HK-2 [2]): Active
Activity (HK-2 [3]): Active
Activity (HK-2 [4]): Active

O=C(O)[C@@H]1C[C@@H](O)[C@@H](O)[C@H](O[C@@H]2[C@@H](O)[C@@H](O)[C@@H](O)O[C@@H]2C(=O)O)O1
Activity (HK-2 [1]): Active
Activity (Rattus norvegicus): Active

O=C(O)[C@@H]1C[C@@H](O)[C@@H](O)[C@H](O[C@@H]2[C@@H](O)[C@@H](O)[C@H](O[C@@H]3[C@@H](O)[C@@H](O)[C@@H](O)O[C@@H]3C(=O)O)O[C@@H]2C(=O)O)O1
Activity (HK-2 [2]): Active
Activity (Rattus norvegicus): Active

O=C(O)[C@@H]1C[C@@H](O)[C@@H](O)[C@H](O[C@@H]2[C@@H](O)[C@@H](O)[C@H](O[C@@H]3[C@@H](O)[C@@H](O)[C@H](O[C@@H]4[C@@H](O)[C@@H](O)[C@@H](O)O[C@@H]4C(=O)O)O[C@@H]3C(=O)O)O[C@@H]2C(=O)O)O1
Activity (HK-2 [1]): Active
